We go through one compound from ChEMBL document CHEMBL6103672, “Discovery of HMPL-306 (Ranosidenib), a New Potent and Selective Dual Inhibitor of Mutant IDH1 and 2 in Clinical Development for Cancer Treatment” (ACS Med Chem Lett, 2025).

The nature of data set [1]: In vivo inhibition of 2-HG in BALB/c nude mouse xenografted with human HT-1080 cells harboring IDH1 R132C mutant at 25 mg/kg, po measured after 16 to 40 hrs post dose. Format: functional. The following applies: time 16-40 hrs.
The nature of data set [2]: In vivo inhibition of 2-HG in BALB/c nude mouse xenografted with human U-87 MG cells harboring IDH2 R140Q mutant at 25 mg/kg, po measured after 16 hrs post dose. The data set is classed as functional.
Data set [3] in a line: Half life in male ICR mouse at 10 mg/kg, po measured after 8 hrs by LC/MS/MS analysis. The following applies: in vivo. Format: ADME, organism-based.
A short description of data set [4]: Half life in male Sprague-Dawley rat at 1 mg/kg, iv measured after 24 hrs by LC/MS/MS analysis. Format: ADME, organism-based. The following applies: in vivo.
Data set [5] can be described thus: Volume of distribution at steady state in male Sprague-Dawley rat at 1 mg/kg, iv measured after 24 hrs by LC/MS/MS analysis. Format: ADME, organism-based. The following applies: in vivo, read-out: Vdss.
A short description of data set [6]: Ratio of drug concentration in brain to plasma of BALB/c nude mouse xenografted with human U-87 MG cells harboring IDH2 R140Q mutant at 50 mg/kg measured after 16 hrs by LC/MS/MS analysis. The data set is classed as ADME, organism-based. The conditions noted are these: read-out: BPR.
The nature of data set [7]: Apparent permeability across apical to basolateral side in human Caco-2 cells at 10 uM incubated for 1 hrs by LC-MS/MS analysis.
Data set [8] addresses Isocitrate dehydrogenase [NADP], mitochondrial (Homo sapiens, UniProt P48735, R140Q). The data set can be described thus: Inhibition of IDH2 R140Q mutant (unknown origin) using alpha-ketoglutarate as substrate preincubated with compound for 16 hrs followed by substrate addition and measured after 1 hr in presence of NADPH by fluorescence based analysis.
Data set [9] in a line: Clearance in male Sprague-Dawley rat at 1 mg/kg, iv measured after 24 hrs by LC/MS/MS analysis. The conditions noted are these: in vivo. Format: ADME, organism-based.
The nature of data set [10]: Cmax in male ICR mouse at 10 mg/kg, po measured after 8 hrs by LC/MS/MS analysis. The data set is classed as ADME, organism-based. The conditions noted are these: in vivo.

Where only a bound is given, the exact number is not on record here.

Sequence of Isocitrate dehydrogenase [NADP], mitochondrial (P48735 40-452 R140Q limits assumed): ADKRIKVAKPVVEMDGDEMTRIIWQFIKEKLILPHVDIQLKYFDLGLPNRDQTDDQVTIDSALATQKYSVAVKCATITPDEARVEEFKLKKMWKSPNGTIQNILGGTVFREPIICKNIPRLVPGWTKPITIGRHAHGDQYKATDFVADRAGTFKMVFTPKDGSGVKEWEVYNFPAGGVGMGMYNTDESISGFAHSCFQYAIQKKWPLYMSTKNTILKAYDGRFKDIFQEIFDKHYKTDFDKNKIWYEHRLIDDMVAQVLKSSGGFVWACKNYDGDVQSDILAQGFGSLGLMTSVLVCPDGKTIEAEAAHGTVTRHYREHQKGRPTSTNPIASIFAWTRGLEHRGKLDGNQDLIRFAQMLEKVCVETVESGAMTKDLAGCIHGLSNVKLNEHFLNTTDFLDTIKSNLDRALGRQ

On to `C[C@@H](Nc1nc(N[C@H](C)C(F)(F)F)nc(C2=C(F)[C@H](O)C(F)(F)CC2)n1)C(F)(F)F` [RANOSIDENIB], for which the inhibition in vivo at 25 mg/kg in data set [1] was ≥ 90%; in data set [2], 96%. Moreover, the results for the half-life in data set [3] and in data set [4] were 20.2 h and 49.9 h, respectively. In data set [5], the Vd stood at 3.67 L/kg. For the same compound, the Kp at 16 h in data set [6] stood at 2.8. The apparent permeability from apical to basolateral (Papp A→B) at 1 h, 10 µM in data set [7] came to 53.3 ×10⁻⁶ cm/s. In addition, the IC50 in data set [8] amounted to 28 nM. The compound also yielded a clearance in data set [9] of 0.8 mL/min/kg. Besides, the Cmax in data set [10] worked out at 2050 ng/mL.
